This is an account of results in ChEMBL document CHEMBL1201862, “PubChem BioAssay data set” (2004).

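Following 48 hours of exposure in 96-well plates, responses at five concentrations were used to interpolate endpoints linearly. Abbreviation: GI50, concentration required for 50% inhibition of growth.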 Calls of active or inactive are those of the source. Cut-off read from the data, not from the text of the source: active = GI50 up to about 1.1 µM and inactive = higher. Some results are limits rather than exact numbers.

Some test systems named below: MDA-MB-231; DMS-114; DMS-273; HOP-18; LXFL 529; M19-MEL; SNB-78; XF498.
Experiment in all cases: NCI anticancer screen, dose series, 48 h

On to `CN(C)c1ccc(C=C2N=C(c3ccccc3)N(c3cc(C(=O)c4ccccc4)ccc3N3C(=O)/C(=C/c4ccc(N(C)C)cc4)N=C3c3ccccc3)C2=O)cc1`, for which, in the assay on MDA-MB-231, the GI50 was 14.1 µM (inactive).

For `CCCCCCCCC/C=C1/CC(CO)(COC(=O)c2ccccc2)OC1=O` (stereo not drawn), the GI50 in the assay on MDA-MB-231 is 12.6 µM (inactive).

On to `O=C1N[C@@H]2c3c(Br)sc(Br)c3C(=O)[C@@H]2O1`, for which the GI50 in the assay with MDA-MB-231 is 2.41 µM (inactive).

In the case of `O=C(Cn1c2ccc(Br)cc2c2nc3ccccc3nc21)N1CCOCC1`, the GI50 in the assay on MDA-MB-231 was 63.5 µM (inactive).

Turning to `O=S(=O)(c1ccccc1)c1ccc(-c2nc(-c3ccc4c(c3)Sc3ccccc3S4)cs2)cc1`, in the assay with MDA-MB-231, the GI50 is 20.5 µM (inactive).

Turning to `COc1cc(N(CCC#N)CCC#N)ccc1C(/N=N/c1cccc([N+](=O)[O-])c1)=N\NC(=O)c1ccc(C)cc1`, in the assay with MDA-MB-231, the GI50 is > 100 µM (inactive).

`COc1ccc2oc(=O)c(-c3csc(C)n3)cc2c1`: the GI50 in the assay with MDA-MB-231 was 24.7 µM (inactive).

Take `CCC(C)C(NC(=O)c1c2ccccc2nc2ccccc12)C(=O)O` (stereo not drawn): the GI50 in the assay with MDA-MB-231 is > 100 µM (inactive).

On to `COC(=O)c1ccccc1C#CCCCOS(C)(=O)=O`, for which the GI50 in the assay with MDA-MB-231 was > 10 µM (inactive).

Regarding `O=P(O)(O)CCP(=O)(O)O`, in the assay on MDA-MB-231, the GI50 is > 100 µM (inactive).

In the case of `COc1ccc(/C=C/NC=O)cc1`, the GI50 with MDA-MB-231 was 89.5 µM (inactive).

Regarding `Cc1ccc(CS(=O)(=O)C/N=C2\Sc3ccccc3N\C2=C/C(=O)c2ccc(Cl)cc2)cc1`, in the assay on MDA-MB-231, the GI50 was > 10 µM (inactive).

With `CC(NC(=O)C(C)C(=O)Nc1ccc(C(F)(F)F)cc1)C(N)=O` (stereo not drawn), in the assay with MDA-MB-231, the GI50 was > 100 µM (inactive).

As for `CSc1nc(=O)c(C#N)c(-c2ccccc2)n1C1OC(COC(C)=O)C(OC(C)=O)C(OC(C)=O)C1OC(C)=O` (stereo not drawn), the GI50 in the assay with MDA-MB-231 was > 100 µM (inactive).

For the molecule `O=[N+]([O-])c1ccc(-c2cc(O)c3nc4ccccc4n3c2)cc1`, in the assay with MDA-MB-231, the GI50 was > 100 µM (inactive).

As for `CCCN(CCC)C(=S)Sc1nc(C)nc(N2CCN(c3nc(C)nc(SC(=S)N(CCC)CCC)c3[N+](=O)[O-])CC2)c1[N+](=O)[O-]`, the GI50 in the assay on MDA-MB-231 is 7.69 µM (inactive).

Take `CC(=O)Nc1ccc(OC/C(N)=N/NC(=O)c2ccncc2)cc1`: in the assay on MDA-MB-231, the GI50 is > 100 µM (inactive).

For the molecule `Nc1ncnc2c1ncn2C1CCC(CP(=O)(O)O)C1` (stereo not drawn), in the assay with MDA-MB-231, the GI50 is > 100 µM (inactive).

For `CC(=O)c1ccc(Br)cc1NC1=CC(=O)c2ncccc2C1=O`, in the assay with MDA-MB-231, the GI50 is 1.88 µM (inactive).

In the case of `CN(C)CC1CN/C(=N\C(=O)Nc2ccccc2)O1` (stereo not drawn), the GI50 in the assay with MDA-MB-231 was > 100 µM (inactive).

Take `COc1ccc(C)cc(O)c1=O`: the GI50 in the assay on DMS-114 is 14 µM (inactive); in the assay with DMS-273 it was 44.7 µM (inactive); in the assay on HOP-18, 40.9 µM (inactive); in the assay on LXFL 529 it was 16.2 µM (inactive); with M19-MEL it was 32.3 µM (inactive); in the assay with SNB-78 it was > 100 µM (inactive).

For the molecule `COC(=O)c1csnn1`, the GI50 with DMS-114, with DMS-273, with LXFL 529, in the assay with M19-MEL and with XF498 was > 100 µM (inactive) throughout.

Turning to `FC(F)(F)c1ccc2c(c1)nc(Cc1ccccc1)n2C[C@@H]1CCCN2CCCCC12` (stereo partly drawn), in the assay with MDA-MB-231, the GI50 was 14.2 µM (inactive).

`CCOP(=O)(OCC)/C(C#N)=C/c1ccc[nH]1`: the GI50 with DMS-114, with DMS-273, in the assay with HOP-18, with LXFL 529, in the assay with M19-MEL and in the assay with SNB-78 was > 100 µM (inactive) in each case.

Turning to `CCCCCCCCCC(=O)CC(=O)c1c(O)cc(O)cc1O`, the GI50 in the assay on MDA-MB-231 was 28.6 µM (inactive).

`O=c1[nH]cc(-c2c[nH]c3ccccc23)nc1-c1c[nH]c2ccccc12`: the GI50 in the assay with MDA-MB-231 was 22.3 µM (inactive).

With `O=C(Nc1ccn(C2CC(I)C(COC(c3ccccc3)(c3ccccc3)c3ccccc3)O2)c(=O)n1)c1ccccc1` (stereo not drawn), the GI50 with MDA-MB-231 is 9.57 µM (inactive).

For the molecule `Cc1cc(C)n(CN(Cn2nc(C)cc2C)C2CCCCC2)n1`, the GI50 with MDA-MB-231 was 26.6 µM (inactive).

On to `N=C(/C=C/c1ccc(-c2cn3cc(/C=C/C(=N)N4CCOCC4)ccc3n2)cc1)N1CCOCC1`, for which the GI50 in the assay on MDA-MB-231 is > 100 µM (inactive).

Regarding `Cc1cn(C2CC(N=[N+]=[N-])C(CO[Si](C)(C)C(C)(C)C)O2)c(=O)[nH]c1=O` (stereo not drawn), the GI50 with MDA-MB-231 is 13.6 µM (inactive).

Regarding `C/C(=N/NC(=S)Nc1ccccc1Cl)c1cccc(/C(C)=N\NC(=S)Nc2ccccc2Cl)n1`, the GI50 in the assay on MDA-MB-231 was 12.2 µM (inactive).

For the molecule `CCOC(=O)COc1c(OC)cc(C2C3=C(COC3=O)Oc3cc4c(cc32)OCO4)cc1OC` (stereo not drawn), the GI50 in the assay with MDA-MB-231 was 3.03 µM (inactive).

As to `CCN(CC)CCn1ncc2ccc3c(c(=O)c4cccnc4n3CCN(CC)CC)c21`, in the assay on MDA-MB-231, the GI50 was 1.67 µM (inactive).

On to `Cc1ccc2c(=O)c3cccc(CC(=O)O)c3[nH]c2c1C`, for which the GI50 in the assay with MDA-MB-231 was > 100 µM (inactive).

As to `Cc1cc(N(CCC#N)CCC#N)ccc1C(/N=N/c1ccc([N+](=O)[O-])cc1)=N\NC(=O)c1cc(Cl)ccc1C(=O)c1ccccc1`, in the assay with MDA-MB-231, the GI50 was 11.2 µM (inactive).

With `Cc1c(Cc2ccccc2)c(Cc2ccccc2)c(C)[s+]1[O-]`, the GI50 in the assay with MDA-MB-231 is 19.2 µM (inactive).

Consider `O=C1CC(=O)n2cnc3cccc(c32)N1`, for which the GI50 in the assay on MDA-MB-231 is > 100 µM (inactive).

In the case of `c1ccc2c(c1)CCc1[nH]c3c(c1-2)-c1ccccc1CC3`, the GI50 with MDA-MB-231 is 33.2 µM (inactive).

For the molecule `O=C1NC2c3c(I)sc(I)c3C(O)C2O1` (stereo not drawn), the GI50 with MDA-MB-231 is > 100 µM (inactive).

`CC1=NN(c2nc(N)nc(CSc3cc(Cl)c(C)cc3S(N)(=O)=O)n2)C(C)(C)C1`: the GI50 in the assay on MDA-MB-231 is > 10 µM (inactive).

For the molecule `C=CCOc1ccc(C2C(C(=O)OCC)C(=O)CC(C)(O)C2C(=O)OCC)cc1OC` (stereo not drawn), the GI50 in the assay with MDA-MB-231 was > 100 µM (inactive).

Turning to `CC1(O)/C(=N/O)CC2CC1C2(C)C` (stereo not drawn), the GI50 in the assay on MDA-MB-231 is > 100 µM (inactive).

Turning to `CCCn1c(SCCSc2c3ccccc3c(-c3nc(F)nc(F)n3)n2CCC)c2ccccc2c1-c1nc(F)nc(F)n1`, the GI50 in the assay on DMS-273 was > 100 µM (inactive); in the assay on HOP-18 it was > 100 µM (inactive); in the assay on LXFL 529, 88.9 µM (inactive); in the assay on SNB-78, > 100 µM (inactive).

As for `O=[N+]([O-])c1cc([N+](=O)[O-])c(/C=C/c2ccc(Cl)c(Cl)c2)cc1/C=C/c1ccc(Cl)c(Cl)c1`, the GI50 with DMS-114 is 24.5 µM (inactive); in the assay with DMS-273 it was 28.4 µM (inactive); in the assay with LXFL 529, 23.6 µM (inactive); in the assay with M19-MEL, 21.4 µM (inactive); with SNB-78 it was 47.4 µM (inactive).

On to `CCCNc1ncnc2c1ncn2C`, for which the GI50 with MDA-MB-231 is 67.1 µM (inactive).

For `C/C=C(\C)C(=O)OC1/C=C(\C)CC/C=C(\C)CC2OC(=O)C(C)(OC(C)=O)C12` (stereo not drawn), the GI50 in the assay with MDA-MB-231 was > 100 µM (inactive).

On to `O=C(/C=C/c1ccccc1)Nc1ccccc1SCCCCl`, for which the GI50 in the assay on MDA-MB-231 was 11.4 µM (inactive).

`COc1cc2c[n+](C)c3c4cc(OC)c(OC)cc4c(OCc4ccccc4)cc3c2cc1OC`: the GI50 in the assay on MDA-MB-231 was 2.32 µM (inactive).

Regarding `CN(c1ccccc1)C1C(=O)N(c2ccccc2)C1/C=C/c1ccccc1` (stereo not drawn), the GI50 in the assay on DMS-273, in the assay on LXFL 529, with M19-MEL and with SNB-78 was > 100 µM (inactive) throughout.

On to `O=C(O)c1ccccc1Cc1ccco1`, for which the GI50 in the assay on DMS-114, with DMS-273, with HOP-18, with LXFL 529 and in the assay on SNB-78 was > 100 µM (inactive) each time.

Consider `Cc1ccc(SC2C(C)(C)N(C(C)C)P2(=O)N(C(C)C)C(C)C)cc1` (stereo not drawn), for which the GI50 with DMS-273 is 13.4 µM (inactive); in the assay with HOP-18, > 100 µM (inactive); with LXFL 529, 21.3 µM (inactive); in the assay on M19-MEL, 26.7 µM (inactive); in the assay on SNB-78, > 68.5 µM (inactive).
